Test results as given in US20240174727A1, “LONG-ACTING NATRIURETIC PEPTIDES AND USES THEREOF” (Eli Lilly and Company, priority 2022, published 2024).
Numbered stars: 1 amine (or outer) side, 2 acyl side, 3 side chain; on linkers, the order of the positions; unused ones are H or OH. Bridge positions count the residues as written; N and C are the ends. Square brackets hold non-standard residues; d marks the D form. * marks the point of attachment. PEG24 = NCCOCCOCCOCCOCCOCCOCCOCCOCCOCCOCCOCCOCCOCCOCCOCCOCCOCCOCCOCCOCCOCCOCCOCCOCCC(=O)O; C20 diacid = O=C(O)CCCCCCCCCCCCCCCCCCC(=O)*; γGlu = O=C(O)[C@H](CCC(=O)[*:2])N[*:1]; CH2 = C([*:1])[*:2]

System: plasma cGMP
Assay: In vivo monkey studies, plasma cGMP ELISA
Set-up: species or system male cynomolgus monkeys
Settings: for Net cGMP (nM) Change from Baseline 0.083 h: 0.083 h postdose; for Net cGMP (nM) Change from Baseline 0.083 h / Net cGMP (nM) Change from Baseline 0.25 h / Net cGMP (nM) Change from Baseline 0.5 h / Net cGMP (nM) Change from Baseline 1 h / Net cGMP (nM) Change from Baseline 2 h / Net cGMP (nM) Change from Baseline 4 h / Net cGMP (nM) Change from Baseline 8 h / Net cGMP (nM) Change from Baseline 12 h / Net cGMP (nM) Change from Baseline 24 h / Net cGMP (nM) Change from Baseline 36 h / Net cGMP (nM) Change from Baseline 48 h / Net cGMP (nM) Change from Baseline 72 h / Net cGMP (nM) Change from Baseline 96 h / Net cGMP (nM) Change from Baseline 120 h / Net cGMP (nM) Change from Baseline 144 h / Net cGMP (nM) Change from Baseline 168 h: monkey plasma; for Net cGMP (nM) Change from Baseline 0.25 h: 0.25 h postdose; for Net cGMP (nM) Change from Baseline 0.5 h: 0.5 h postdose; for Net cGMP (nM) Change from Baseline 1 h: 1 h postdose; for Net cGMP (nM) Change from Baseline 2 h: 2 h postdose; for Net cGMP (nM) Change from Baseline 4 h: 4 h postdose; for Net cGMP (nM) Change from Baseline 8 h: 8 h postdose; for Net cGMP (nM) Change from Baseline 12 h: 12 h postdose; for Net cGMP (nM) Change from Baseline 24 h: 24 h postdose; for Net cGMP (nM) Change from Baseline 36 h: 36 h postdose; for Net cGMP (nM) Change from Baseline 48 h: 48 h postdose; for Net cGMP (nM) Change from Baseline 72 h: 72 h postdose; for Net cGMP (nM) Change from Baseline 96 h: 96 h postdose; for Net cGMP (nM) Change from Baseline 120 h: 120 h postdose; for Net cGMP (nM) Change from Baseline 144 h: 144 h postdose; for Net cGMP (nM) Change from Baseline 168 h: 168 h postdose; for net cGMP levels (result in words): monkeys, single SC dose, plasma
Procedure: In vivo monkey studies were conducted as described in detail below. Young adult-to-adult male cynomolgus monkeys were given a single dose subcutaneously (SC). Blood was collected predose and at various pre-determined timepoints throughout the study period. Aliquot of cynomolgus monkey plasma was received for cyclic cGMP (cGMP) measurement and stored at −80° C. prior to use.
Control plasma was made for determining the recovery rate of spike-in cGMP using Enzo cGMP complete ELISA kit (Enzo Life Sciences, Inc, Farmingdale, NY, cat no. ADI-901-164). Briefly, blood from male Sprague Dawley rats (Inotiv, Indianapolis, IN), about 7 months old, was collected in a BD Vacutainer EDTA tube (Becton Dickinson, Franklin Lakes, NJ, cat no. BD-367856) with volume of approximate 4 mL through retro orbital bleeding. Plasma was prepared by spinning the tube in an Eppendorf Refrigerated Centrifuge 5810R (Brinkman Instruments, Inc, Westbury, NY) at 3500 rpm (3000×g) for 10 min at 4° C. Plasma was collected as Positive Control plasma. Cyclic GMP (cGMP standard from Enzo cGMP complete ELISA kit) was added to the positive control plasma at a final concentration of additional 40 nM. Positive Control and Spiked-in Control plasma were aliquoted and stored at −80° C.
The cGMP content was measured using the Enzo cGMP complete ELISA kit following the manufacturer's directions with modifications as described below. The cGMP standards provided in the kit were diluted 1:3 ranging from 50 nM to 0.023 nM in 1× assay buffer that was diluted in water from 2× assay buffer provided in the kit. The cGMP standards ([…]) were transferred to a 96-well polypropylene plate (Thermo Scientific, cat no. 442587).
Plasma samples were thawed from −80° C. and diluted 1:20 in 1× assay buffer in the above plate with a final volume of 150 μL. Assay buffer was added (150 μL) for both a non-specific binding control (in the absence of cGMP antibody) and a maximum binding control (in the absence of competing cGMP) in duplicate wells. Positive Control and Spiked-in Control plasma were diluted 1:20 in 1× assay buffer with a final volume of 150 μL in duplicate wells of the above plate. All diluted plasma was mixed by pipetting up and down several times.
Acetylation reagent mix was prepared by adding 1-part of acetic anhydride into 2-parts of triethylamine provided in the kit and mixing well using Vortex (Scientific Industries, Inc, Bohemia, NY). All controls, standards, and plasma samples were acetylated by adding 15 μL of acetylation reagent mix into the plate, one column at a time, and shaking for 1 min on a Titer Plate Shaker (Lab-Line Instrument, Inc., Melrose Park, IL) at room temperature. The plate was shaken for an additional 1 min following the acetylation of the last column to ensure the reaction was completed.
Acetylated controls, standard and plasma samples were transferred (100 μL) to an ELISA plate (n=1). Then 50 μL of cGMP conjugate were added to each well followed by the addition of 50 μL cGMP antibody to each well except for two non-specific binding wells, in which 50 μL of 1× assay buffer were added. The plate was then sealed and shaken for 2 h at room temperature on the plate shaker. Following this incubation, the plate was washed five times using 200 μL of 1× wash buffer diluted in water from 5× wash buffer provided in the kit. Then, 200 μL of para-Nitrophenylphosphate (pNpp) were added to each well. The plate was sealed with a new plate sealer and shaken in dark for 1 h at room temperature on the plate shaker. Finally, 50 μL of stop solution were added to each well to stop the enzyme reaction. The plate was then read at 405 nm using SpectraMax Plus (Molecular Devices, San Jose, CA).
The mean absorbance at 405 nm (O.D. 405 nm) for the non-specific binding controls was subtracted from the O.D. 405 nm of all samples. The subtracted O.D. 405 nm of all samples were then normalized with the mean subtracted O.D. 405 nm of the maximum binding controls as B/B0%. […]

Substance	Net cGMP (nM) Change from Baseline 0.083 h (dose 25 nmol/kg) [nM]	Net cGMP (nM) Change from Baseline 0.25 h (dose 25 nmol/kg) [nM]	Net cGMP (nM) Change from Baseline 0.5 h (dose 25 nmol/kg) [nM]	Net cGMP (nM) Change from Baseline 1 h (dose 25 nmol/kg) [nM]	Net cGMP (nM) Change from Baseline 2 h (dose 25 nmol/kg) [nM]	Net cGMP (nM) Change from Baseline 4 h (dose 25 nmol/kg) [nM]	Net cGMP (nM) Change from Baseline 8 h (dose 25 nmol/kg) [nM]	Net cGMP (nM) Change from Baseline 12 h (dose 25 nmol/kg) [nM]	Net cGMP (nM) Change from Baseline 24 h (dose 25 nmol/kg) [nM]	Net cGMP (nM) Change from Baseline 36 h (dose 25 nmol/kg) [nM]	Net cGMP (nM) Change from Baseline 48 h (dose 25 nmol/kg) [nM]	Net cGMP (nM) Change from Baseline 72 h (dose 25 nmol/kg) [nM]	Net cGMP (nM) Change from Baseline 96 h (dose 25 nmol/kg) [nM]	Net cGMP (nM) Change from Baseline 120 h (dose 25 nmol/kg) [nM]	Net cGMP (nM) Change from Baseline 144 h (dose 25 nmol/kg) [nM]	Net cGMP (nM) Change from Baseline 168 h (dose 25 nmol/kg) [nM]	net cGMP levels (result in words)	further results
{C20 diacid-γGlu}-EKEKEKG[PEG24]EKPRSSCFGKRIDRIGHQSGLGCPSFRHSGSPSSGAPPPSG-NH2 (linker 15-31 via CH2) [Example 132, HOOC-(CH2)18-CO-(γGlu)-EKEKEKG-PEG24-EKPRSS[CFGKRIDRIGHQSGLGCJPSFRHSGSPSSGAPPPSG-NH2]	2.96	11.54	25	29.41	28.64	28.7	24.12	20.96	19.79	17.54	12.7	13.11	11.68	13.22	11.64	7.08	increased net cGMP levels	–
{C20 diacid-γGlu}-EKEKEKGEKPRSSCFGKRIDRIGHQSGLGCPSFRHGSPSSGAPPPS-NH2 (linker 14-30 via CH2) [Example 127]	–	–	–	–	–	–	–	–	–	–	–	–	–	–	–	–	increased net cGMP levels	Net cGMP (nM) Change from Baseline 0.083 h (dose 50 nmol/kg): -0.87 nM; Net cGMP (nM) Change from Baseline 0.25 h (dose 50 nmol/kg): 4.09 nM; Net cGMP (nM) Change from Baseline 0.5 h (dose 50 nmol/kg): 8.84 nM; Net cGMP (nM) Change from Baseline 1 h (dose 50 nmol/kg): 8.13 nM; Net cGMP (nM) Change from Baseline 2 h (dose 50 nmol/kg): 8.92 nM; Net cGMP (nM) Change from Baseline 4 h (dose 50 nmol/kg): 10.25 nM; Net cGMP (nM) Change from Baseline 8 h (dose 50 nmol/kg): 13.28 nM; Net cGMP (nM) Change from Baseline 12 h (dose 50 nmol/kg): 18.76 nM; Net cGMP (nM) Change from Baseline 24 h (dose 50 nmol/kg): 20.16 nM; Net cGMP (nM) Change from Baseline 36 h (dose 50 nmol/kg): 19.43 nM; Net cGMP (nM) Change from Baseline 48 h (dose 50 nmol/kg): 18.43 nM; Net cGMP (nM) Change from Baseline 72 h (dose 50 nmol/kg): 12.9 nM; Net cGMP (nM) Change from Baseline 96 h (dose 50 nmol/kg): 11.67 nM; Net cGMP (nM) Change from Baseline 120 h (dose 50 nmol/kg): 9.32 nM; Net cGMP (nM) Change from Baseline 144 h (dose 50 nmol/kg): 9.3 nM; Net cGMP (nM) Change from Baseline 168 h (dose 50 nmol/kg): 9.36 nM
(BFAEN2-γGlu)-KEKEKG-PEG24-EK-βAla-RSS[CFGGKIDRIGHYSGLGC]PSFRHGSPSSGAPPPS-NH2 (EKXRSSCFGGKIDRIGHYSGLGCPSFRHGSPSSGAPPPS; BFAEN2-γGlu, PEG24, C-terminal amide; MOD_RES 1 N-terminal modified with (BFAEN2-beta-Ala)-KEKEKG-PEG24-; wherein BFAEN2 is Bifurcated Fatty Acid Enantiomer 2; SITE 3 X at position 3 is beta-Alanine; MOD_RES 39 Amidation; DISULFID 7..23 Intrachain thioacetal bond) [Example 145]	-0.82	2.94	4.37	3.19	8.88	11.23	17.87	22.09	24.61	31.53	21.81	21	14.82	14.4	11.99	5.89	increased net cGMP levels	–
(BFAEN2-βAla)-EKEKEKG-PEG24-EK-βAla-RSS[CFGKRIDRIGHQSGLGC]PSFRHGSPSSGAPPPS-NH2 (EKXRSSCFGKRIDRIGHQSGLGCPSFRHGSPSSGAPPPS; BFAEN2-βAla, PEG24, C-terminal amide; MOD_RES 1 N-terminal modified with (BFAEN2-beta-Ala)-EKEKEKG-PEG24-; wherein BFAEN2 is Bifurcated Fatty Acid Enantiomer 2; SITE 3 X at position 3 is beta-Alanine; MOD_RES 39 Amidation; DISULFID 7..23 Intrachain thioacetal bond) [Example 144]	–	–	–	–	–	–	–	–	–	–	–	–	–	–	–	–	increased net cGMP levels	Net cGMP (nM) Change from Baseline 0.083 h (dose 100 nmol/kg): 5.9 nM; Net cGMP (nM) Change from Baseline 0.25 h (dose 100 nmol/kg): 18.26 nM; Net cGMP (nM) Change from Baseline 0.5 h (dose 100 nmol/kg): 27.08 nM; Net cGMP (nM) Change from Baseline 1 h (dose 100 nmol/kg): 36.51 nM; Net cGMP (nM) Change from Baseline 2 h (dose 100 nmol/kg): 35.21 nM; Net cGMP (nM) Change from Baseline 4 h (dose 100 nmol/kg): 27.1 nM; Net cGMP (nM) Change from Baseline 8 h (dose 100 nmol/kg): 20.15 nM; Net cGMP (nM) Change from Baseline 12 h (dose 100 nmol/kg): 13.2 nM; Net cGMP (nM) Change from Baseline 24 h (dose 100 nmol/kg): 10.23 nM; Net cGMP (nM) Change from Baseline 36 h (dose 100 nmol/kg): 9.57 nM; Net cGMP (nM) Change from Baseline 48 h (dose 100 nmol/kg): 7.11 nM; Net cGMP (nM) Change from Baseline 72 h (dose 100 nmol/kg): 5.22 nM; Net cGMP (nM) Change from Baseline 96 h (dose 100 nmol/kg): 6.83 nM; Net cGMP (nM) Change from Baseline 120 h (dose 100 nmol/kg): 3.5 nM; Net cGMP (nM) Change from Baseline 144 h (dose 100 nmol/kg): 4.48 nM; Net cGMP (nM) Change from Baseline 168 h (dose 100 nmol/kg): 8.71 nM
